Test results taken from ChEMBL document CHEMBL2150859, “Design, synthesis, and evaluation of 3,5-disubstituted 7-azaindoles as Trk inhibitors with anticancer and antiangiogenic activities” (J Med Chem, 2012).

Assays:
[1] = molecular target: T1, High affinity nerve growth factor receptor (Homo sapiens, UniProt P04629); assay: Binding affinity to TRKA by high throughput assay
Target sequence in this assay (P04629 whole entry): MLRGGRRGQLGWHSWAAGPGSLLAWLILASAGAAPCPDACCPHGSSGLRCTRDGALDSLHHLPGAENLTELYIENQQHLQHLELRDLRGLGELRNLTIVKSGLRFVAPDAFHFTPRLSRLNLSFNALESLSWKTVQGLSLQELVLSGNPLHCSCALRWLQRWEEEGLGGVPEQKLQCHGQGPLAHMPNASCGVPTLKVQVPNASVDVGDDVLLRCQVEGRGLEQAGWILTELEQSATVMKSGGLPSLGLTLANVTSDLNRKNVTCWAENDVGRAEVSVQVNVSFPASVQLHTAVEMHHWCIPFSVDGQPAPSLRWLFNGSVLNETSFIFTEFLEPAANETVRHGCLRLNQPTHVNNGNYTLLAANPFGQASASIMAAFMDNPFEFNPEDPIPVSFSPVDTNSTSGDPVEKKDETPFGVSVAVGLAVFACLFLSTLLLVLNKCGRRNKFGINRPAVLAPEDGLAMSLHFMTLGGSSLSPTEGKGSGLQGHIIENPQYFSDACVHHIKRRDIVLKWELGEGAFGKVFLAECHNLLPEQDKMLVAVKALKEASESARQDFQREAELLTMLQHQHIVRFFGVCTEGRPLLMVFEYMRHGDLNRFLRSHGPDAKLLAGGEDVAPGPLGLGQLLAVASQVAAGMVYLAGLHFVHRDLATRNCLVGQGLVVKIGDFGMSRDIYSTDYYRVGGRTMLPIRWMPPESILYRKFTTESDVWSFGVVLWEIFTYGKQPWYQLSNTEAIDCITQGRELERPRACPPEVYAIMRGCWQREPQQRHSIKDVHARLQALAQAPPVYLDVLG

[2] = molecular target: T1, High affinity nerve growth factor receptor; assay: Binding affinity to TRKA at 10 uM by high throughput binding assay relative to control
Target sequence in this assay (P04629 33-796 limits assumed): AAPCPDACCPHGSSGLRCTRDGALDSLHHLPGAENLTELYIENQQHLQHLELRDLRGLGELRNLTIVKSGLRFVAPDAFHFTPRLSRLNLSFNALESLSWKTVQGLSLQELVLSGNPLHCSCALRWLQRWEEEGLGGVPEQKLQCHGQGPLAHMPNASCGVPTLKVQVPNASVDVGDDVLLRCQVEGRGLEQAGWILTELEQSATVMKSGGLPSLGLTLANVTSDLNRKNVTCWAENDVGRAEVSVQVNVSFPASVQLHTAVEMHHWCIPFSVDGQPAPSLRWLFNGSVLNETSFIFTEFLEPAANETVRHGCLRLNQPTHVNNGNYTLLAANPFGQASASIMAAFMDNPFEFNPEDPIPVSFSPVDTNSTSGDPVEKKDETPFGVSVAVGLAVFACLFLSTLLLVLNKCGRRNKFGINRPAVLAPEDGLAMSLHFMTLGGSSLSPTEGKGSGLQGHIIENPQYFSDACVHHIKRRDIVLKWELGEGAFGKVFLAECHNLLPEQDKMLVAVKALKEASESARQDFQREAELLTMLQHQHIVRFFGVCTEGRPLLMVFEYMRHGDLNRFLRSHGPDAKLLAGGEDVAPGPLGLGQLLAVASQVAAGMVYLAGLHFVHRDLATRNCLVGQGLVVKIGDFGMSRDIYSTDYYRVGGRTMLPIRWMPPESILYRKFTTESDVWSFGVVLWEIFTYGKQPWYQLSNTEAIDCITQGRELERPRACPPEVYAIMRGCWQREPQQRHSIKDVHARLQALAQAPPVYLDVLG

[3] = molecular target: T2, Phosphatidylinositol 4,5-bisphosphate 3-kinase catalytic subunit alpha isoform (Homo sapiens, UniProt P42336); assay: Binding affinity to PI3Kalpha at 10 uM by high throughput binding assay relative to control
[4] = molecular target: T1, High affinity nerve growth factor receptor; assay: Inhibition of TRKA assessed as [gamma33P]ATP incorporation into substrate
Target sequence in this assay (P04629 whole entry): as the sequence (P04629 whole entry) above

[5] = tested on: MCF7; assay: cells; conditions: Homo sapiens, MCF7, 48 h
Description: Cytotoxicity against human MCF7 cells after 48 hrs by MTT assay

[6] = molecular target: T2, Phosphatidylinositol 4,5-bisphosphate 3-kinase catalytic subunit alpha isoform; assay: Binding affinity to PI3Kalpha by high throughput assay
[7] = Selectivity ratio of Kd for PI3Kalpha to Kd for TRKA

T2 sequence (P42336 whole entry, canonical isoform): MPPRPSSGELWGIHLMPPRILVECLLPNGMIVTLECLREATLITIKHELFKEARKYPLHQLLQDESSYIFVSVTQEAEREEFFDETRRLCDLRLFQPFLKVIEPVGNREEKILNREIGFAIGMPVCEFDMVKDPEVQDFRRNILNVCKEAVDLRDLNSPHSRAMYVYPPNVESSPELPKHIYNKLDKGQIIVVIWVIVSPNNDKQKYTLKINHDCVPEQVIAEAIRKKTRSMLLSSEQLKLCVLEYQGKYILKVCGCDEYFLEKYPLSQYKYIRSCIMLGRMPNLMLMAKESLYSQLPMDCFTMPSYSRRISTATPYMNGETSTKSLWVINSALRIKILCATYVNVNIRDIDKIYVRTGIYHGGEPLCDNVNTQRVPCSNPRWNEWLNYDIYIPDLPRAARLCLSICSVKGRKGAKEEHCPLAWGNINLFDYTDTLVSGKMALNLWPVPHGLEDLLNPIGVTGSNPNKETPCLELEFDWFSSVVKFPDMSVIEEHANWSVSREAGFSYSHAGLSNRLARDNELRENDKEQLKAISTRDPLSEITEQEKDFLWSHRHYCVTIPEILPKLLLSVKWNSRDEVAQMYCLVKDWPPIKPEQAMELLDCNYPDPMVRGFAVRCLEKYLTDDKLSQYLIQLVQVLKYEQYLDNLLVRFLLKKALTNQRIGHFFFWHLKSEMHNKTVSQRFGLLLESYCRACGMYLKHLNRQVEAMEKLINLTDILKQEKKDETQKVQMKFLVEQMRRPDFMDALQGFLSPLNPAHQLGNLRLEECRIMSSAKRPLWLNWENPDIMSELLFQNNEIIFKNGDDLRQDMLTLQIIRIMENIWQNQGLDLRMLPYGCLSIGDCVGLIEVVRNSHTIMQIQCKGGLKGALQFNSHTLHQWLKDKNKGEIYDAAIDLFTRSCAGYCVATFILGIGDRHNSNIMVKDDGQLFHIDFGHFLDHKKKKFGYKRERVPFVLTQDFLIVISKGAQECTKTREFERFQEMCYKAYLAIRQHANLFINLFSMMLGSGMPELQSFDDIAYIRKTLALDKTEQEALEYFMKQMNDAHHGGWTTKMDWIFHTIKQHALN

**Q.** For `COc1ccc(-c2c[nH]c3ncc(-c4cccc(N)c4)cc23)cc1OC`, which Kd [1] is on record?
**A.** 125 nM

**Q.** And the Activity [2]?
**A.** 1.3%

**Q.** And the Activity [3]?
**A.** 59%

**Q.** Which Kd [1] does the source give for `N#Cc1cccc(-c2c[nH]c3ncc(-c4cccc(N)c4)cc23)c1` here?
**A.** 270 nM

**Q.** What about the Activity [2] of the same molecule?
**A.** 2.6%

**Q.** What about the Activity [3] of the same molecule?
**A.** 98%

**Q.** Which results are given for `Nc1ccc(-c2cnc3[nH]cc(-c4ccncc4)c3c2)cc1`?
**A.** IC50 [4]: 25 nM; IC50 [5]: 7700 nM

**Q.** Which IC50 [4] does the source give for `Cc1ccc(S(=O)(=O)Nc2cc(N)cc(-c3cnc4[nH]cc(-c5ccncc5)c4c3)c2)cc1` here?
**A.** 4.62 nM

**Q.** What about the IC50 [5] of the same molecule?
**A.** 10400 nM

**Q.** Which IC50 [4] does the source give for `Nc1ccc(NS(=O)(=O)c2ccccc2)c(-c2cnc3[nH]cc(-c4ccncc4)c3c2)c1` here?
**A.** 3170 nM

**Q.** For `COc1ccc(-c2c[nH]c3ncc(-c4cncc(N)c4)cc23)cc1OC`, which Kd [6] is on record?
**A.** 960 nM

**Q.** What about the Kd [1] of the same molecule?
**A.** 58 nM

**Q.** And the Activity [2]?
**A.** 0.05%

**Q.** And the Activity [3]?
**A.** 12%

**Q.** What about the Selectivity ratio [7] of the same molecule?
**A.** 17

**Q.** For `Nc1cc(-c2cnc3[nH]cc(-c4ccncc4)c3c2)ccc1C(=O)N1CCOCC1`, which IC50 [4] is on record?
**A.** 88.6 nM

**Q.** And the IC50 [5]?
**A.** 8500 nM

**Q.** Which results are given for `CS(=O)(=O)Nc1cccc(-c2c[nH]c3ncc(-c4cncc(NS(=O)(=O)c5ccccc5)c4)cc23)c1`?
**A.** Activity [2]: 9.6%; Activity [3]: 0.9%

**Q.** With `Nc1cncc(-c2cnc3[nH]cc(-c4ccncc4)c3c2)c1` as the molecule, how does the IC50 [4] read?
**A.** 69.6 nM

**Q.** What about the IC50 [5] of the same molecule?
**A.** 5100 nM

**Q.** Which Kd [6] does the source give for `COc1ccc(-c2c[nH]c3ncc(-c4cccc(NS(=O)(=O)c5ccccc5)c4)cc23)cc1OC` here?
**A.** 2300 nM

**Q.** What about the Kd [1] of the same molecule?
**A.** 91 nM

**Q.** And the Activity [2]?
**A.** 0.2%

**Q.** What about the Activity [3] of the same molecule?
**A.** 31%

**Q.** What about the Selectivity ratio [7] of the same molecule?
**A.** 25

**Q.** Which results are given for `COc1cc(N)cc(-c2cnc3[nH]cc(-c4ccncc4)c3c2)c1`?
**A.** IC50 [4]: 18.6 nM; IC50 [5]: 8500 nM

**Q.** For `Nc1cccc(-c2cnc3[nH]cc(-c4cccnc4)c3c2)c1`, which Kd [6] is on record?
**A.** 4500 nM

**Q.** And the Kd [1]?
**A.** 75 nM

**Q.** And the Activity [2]?
**A.** 0.2%

**Q.** What about the Activity [3] of the same molecule?
**A.** 42%

**Q.** And the Selectivity ratio [7]?
**A.** 60

**Q.** With `CN(C)c1cccc(-c2cnc3[nH]cc(-c4ccncc4)c3c2)c1` as the molecule, how does the IC50 [4] read?
**A.** 26.5 nM

**Q.** What about the IC50 [5] of the same molecule?
**A.** 12100 nM

**Q.** Which IC50 [4] does the source give for `Nc1cc(-c2cnc3[nH]cc(-c4ccncc4)c3c2)ccc1Cl` here?
**A.** 53.7 nM

**Q.** What about the IC50 [5] of the same molecule?
**A.** 12000 nM

**Q.** With `CS(=O)(=O)Nc1cc(N)cc(-c2cnc3[nH]cc(-c4ccncc4)c3c2)c1` as the molecule, how does the IC50 [4] read?
**A.** 33.8 nM

**Q.** And the IC50 [5]?
**A.** > 30000 nM

**Q.** What does the source list for `CNc1cccc(-c2cnc3[nH]cc(-c4ccncc4)c3c2)c1`?
**A.** IC50 [4]: 31.4 nM; IC50 [5]: 4500 nM

**Q.** For `COc1ccc(-c2c[nH]c3ncc(-c4cccc(C#N)c4)cc23)cc1OC`, which Activity [2] is on record?
**A.** 26%

**Q.** What about the Activity [3] of the same molecule?
**A.** 69%

**Q.** For `Nc1cccc(-c2cnc3[nH]cc(-c4ccncc4)c3c2)c1`, which Kd [6] is on record?
**A.** 2900 nM

**Q.** What about the IC50 [4] of the same molecule?
**A.** 42.7 nM

**Q.** And the Kd [1]?
**A.** 64 nM

**Q.** What about the Activity [2] of the same molecule?
**A.** 0%

**Q.** And the Activity [3]?
**A.** 31%

**Q.** And the IC50 [5]?
**A.** 2300 nM

**Q.** Which Kd [6] does the source give for `COc1ccc(-c2c[nH]c3ncc(-c4cncc(NS(=O)(=O)c5ccccc5)c4)cc23)cc1OC` here?
**A.** 48 nM

**Q.** What about the Kd [1] of the same molecule?
**A.** 145 nM

**Q.** What about the Activity [2] of the same molecule?
**A.** 0.8%

**Q.** What about the Activity [3] of the same molecule?
**A.** 0.05%

**Q.** And the Selectivity ratio [7]?
**A.** 0.33

**Q.** What does the source list for `CN(C)CCOc1ccc(-c2cnc3[nH]cc(-c4ccncc4)c3c2)cc1N`?
**A.** IC50 [4]: 47 nM; IC50 [5]: 3100 nM

**Q.** Which IC50 [4] does the source give for `CC(=O)Nc1cccc(-c2cnc3[nH]cc(-c4ccncc4)c3c2)c1` here?
**A.** 34.3 nM

**Q.** And the IC50 [5]?
**A.** 9100 nM

**Q.** Which IC50 [4] does the source give for `Cc1ccc(-c2cnc3[nH]cc(-c4ccncc4)c3c2)cc1N` here?
**A.** 22.2 nM

**Q.** What about the IC50 [5] of the same molecule?
**A.** 2800 nM

**Q.** What does the source list for `COc1cccc(-c2cnc3[nH]cc(-c4ccncc4)c3c2)c1`?
**A.** IC50 [4]: 22.7 nM; IC50 [5]: 11700 nM

**Q.** Which IC50 [4] does the source give for `COc1ccc(N)cc1-c1cnc2[nH]cc(-c3ccncc3)c2c1` here?
**A.** 110 nM

**Q.** And the IC50 [5]?
**A.** 5400 nM

**Q.** Which IC50 [4] does the source give for `CC(=O)Nc1cc(N)cc(-c2cnc3[nH]cc(-c4ccncc4)c3c2)c1` here?
**A.** 5.41 nM

**Q.** And the IC50 [5]?
**A.** > 30000 nM

**Q.** Which results are given for `N#Cc1cccc(-c2cnc3[nH]cc(-c4cccc(N)c4)c3c2)c1`?
**A.** Kd [6]: 12000 nM; Kd [1]: 110 nM; Activity [2]: 0.65%; Activity [3]: 48%; Selectivity ratio [7]: 109

**Q.** Which Kd [1] does the source give for `Nc1cccc(-c2cnc3[nH]cc(-c4ccccc4)c3c2)c1` here?
**A.** 88 nM

**Q.** And the Activity [2]?
**A.** 0.3%

**Q.** And the Activity [3]?
**A.** 100%

**Q.** For `CN(C)CCOc1cc(N)cc(-c2cnc3[nH]cc(-c4ccncc4)c3c2)c1`, which IC50 [4] is on record?
**A.** 13.6 nM

**Q.** And the IC50 [5]?
**A.** 11200 nM

**Q.** Which IC50 [4] does the source give for `Nc1cc(NS(=O)(=O)c2ccccc2)cc(-c2cnc3[nH]cc(-c4ccncc4)c3c2)c1` here?
**A.** 9.4 nM

**Q.** What about the IC50 [5] of the same molecule?
**A.** 8800 nM

**Q.** For `Nc1cc(C(=O)N2CCOCC2)cc(-c2cnc3[nH]cc(-c4ccncc4)c3c2)c1`, which IC50 [4] is on record?
**A.** 64.7 nM

**Q.** And the IC50 [5]?
**A.** > 30000 nM

**Q.** With `Nc1cc(OCCN2CCOCC2)cc(-c2cnc3[nH]cc(-c4ccncc4)c3c2)c1` as the molecule, how does the IC50 [4] read?
**A.** 8.36 nM

**Q.** What about the IC50 [5] of the same molecule?
**A.** 11200 nM

**Q.** Which results are given for `Nc1cc(NS(=O)(=O)c2ccc(F)cc2F)cc(-c2cnc3[nH]cc(-c4ccncc4)c3c2)c1`?
**A.** IC50 [4]: 2.97 nM; IC50 [5]: 6600 nM

**Q.** What does the source list for `COc1ccc(-c2cnc3[nH]cc(-c4ccncc4)c3c2)cc1N`?
**A.** IC50 [4]: 33.2 nM; IC50 [5]: 8700 nM
